The results in this text go back to article PMC7662280 (Molecules, 2020).

A short description of series [1]: Inhibition of linoleic acid peroxidation induced by AAPH. The conditions noted are these: anti-lipid peroxidation of linoleic acid, 100 μM.
For the next series, the target named is T1, bovine COX-2 (Bos taurus, UniProt O62698).
T1 sequence (O62698 18-604): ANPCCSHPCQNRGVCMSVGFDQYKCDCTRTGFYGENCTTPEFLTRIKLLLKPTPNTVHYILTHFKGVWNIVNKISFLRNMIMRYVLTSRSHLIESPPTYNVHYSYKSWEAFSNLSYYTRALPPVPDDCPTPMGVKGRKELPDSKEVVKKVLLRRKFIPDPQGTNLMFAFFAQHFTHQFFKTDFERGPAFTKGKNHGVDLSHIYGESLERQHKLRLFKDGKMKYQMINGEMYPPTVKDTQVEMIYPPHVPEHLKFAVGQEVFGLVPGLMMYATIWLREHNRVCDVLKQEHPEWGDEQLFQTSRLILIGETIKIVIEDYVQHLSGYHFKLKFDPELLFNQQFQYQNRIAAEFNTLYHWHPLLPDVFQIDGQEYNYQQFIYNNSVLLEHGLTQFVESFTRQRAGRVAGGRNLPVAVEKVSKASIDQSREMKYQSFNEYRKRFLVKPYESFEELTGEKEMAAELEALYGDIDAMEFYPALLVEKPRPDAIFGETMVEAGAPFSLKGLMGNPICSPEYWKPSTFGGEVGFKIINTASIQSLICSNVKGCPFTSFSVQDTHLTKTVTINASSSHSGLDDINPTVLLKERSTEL
Nature of the series: biochemical. The series is classed as biochemical.

Series [2] can be described thus: Experimental lipophilicity as RM values by RPTLC. The series is classed as physicochemical. The conditions noted are these: silica gel impregnated with liquid paraffin, methanol/water 77/23, 24 °C.
The target in series [3] is T2, soybean lipoxygenase (isozyme LOX-1) (Glycine max, UniProt P08170).
T2 construct: purchased Sigma Chemical, Co. (St. Louis, MO, USA)
T2 sequence (P08170 1-839): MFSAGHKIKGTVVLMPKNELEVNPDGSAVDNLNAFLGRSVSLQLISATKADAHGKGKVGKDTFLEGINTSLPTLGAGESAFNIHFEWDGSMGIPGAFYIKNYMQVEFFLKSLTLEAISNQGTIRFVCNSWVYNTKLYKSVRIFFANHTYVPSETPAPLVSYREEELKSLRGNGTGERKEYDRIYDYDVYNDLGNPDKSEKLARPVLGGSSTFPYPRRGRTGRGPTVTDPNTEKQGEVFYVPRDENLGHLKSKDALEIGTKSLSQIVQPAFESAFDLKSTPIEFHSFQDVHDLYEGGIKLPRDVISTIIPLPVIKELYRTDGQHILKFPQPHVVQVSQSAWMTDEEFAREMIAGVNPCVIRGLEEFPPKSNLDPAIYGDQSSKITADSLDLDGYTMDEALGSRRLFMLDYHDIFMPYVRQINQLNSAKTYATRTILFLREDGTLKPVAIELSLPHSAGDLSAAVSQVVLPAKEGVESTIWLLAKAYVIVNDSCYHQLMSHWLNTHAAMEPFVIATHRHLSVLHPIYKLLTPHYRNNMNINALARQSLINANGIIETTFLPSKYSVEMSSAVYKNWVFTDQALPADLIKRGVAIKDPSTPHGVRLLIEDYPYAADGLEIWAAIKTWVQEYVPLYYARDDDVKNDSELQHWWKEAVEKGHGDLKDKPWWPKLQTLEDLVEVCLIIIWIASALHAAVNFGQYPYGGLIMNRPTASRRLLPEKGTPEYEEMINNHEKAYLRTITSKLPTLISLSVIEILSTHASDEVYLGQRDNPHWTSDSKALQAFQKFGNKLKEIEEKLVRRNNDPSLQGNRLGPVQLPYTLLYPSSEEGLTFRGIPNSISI
Briefly: Soybean lipoxygenase inhibition study. The note with it: soybean lipoxygenase, sodium linoleate substrate; read-out: LOX IC50 (μM) ± SEM. The series is classed as biochemical.

The next series addresses T3, eel AChE (Electrophorus electricus, UniProt O42275).
T3 construct: purchased Sigma-Aldrich Type VI-S
Nature of the series: biochemical. The conditions noted are these: acetylthiocholine substrate, read-out: AChE IC50 (μM) ± SEM.

T3 sequence (O42275 24-633): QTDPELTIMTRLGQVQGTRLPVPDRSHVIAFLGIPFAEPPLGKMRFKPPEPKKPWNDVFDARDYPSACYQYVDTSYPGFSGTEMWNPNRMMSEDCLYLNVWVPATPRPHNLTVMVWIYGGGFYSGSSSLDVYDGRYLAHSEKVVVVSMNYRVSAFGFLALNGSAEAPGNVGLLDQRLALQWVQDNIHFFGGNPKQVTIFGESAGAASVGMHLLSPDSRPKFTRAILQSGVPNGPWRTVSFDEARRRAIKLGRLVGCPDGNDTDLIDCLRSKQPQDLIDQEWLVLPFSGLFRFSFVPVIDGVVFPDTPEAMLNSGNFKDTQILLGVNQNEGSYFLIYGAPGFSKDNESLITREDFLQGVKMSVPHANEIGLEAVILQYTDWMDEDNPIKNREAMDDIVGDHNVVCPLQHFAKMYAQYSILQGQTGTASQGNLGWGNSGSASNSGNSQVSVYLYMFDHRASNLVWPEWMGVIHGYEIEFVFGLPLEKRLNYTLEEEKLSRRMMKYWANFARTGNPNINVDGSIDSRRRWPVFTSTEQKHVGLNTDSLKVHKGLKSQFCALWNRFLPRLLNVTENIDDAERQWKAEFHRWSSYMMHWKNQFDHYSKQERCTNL

For `O=C(O)/C=C/c1ccc(O)c(O)c1` [2c, caffeic acid], the “AAPH Inhibition (%, at 100 μΜ)” value in series [1] is given as 80 ± 2.2%. Also, at bovine COX-2 (bovine COX-2, 100 μM, n.a. = no activity under the experimental conditions), the “COX-2 (% Inhibition at 100 μM) ± SEM” value is given as “presented anti-COX-2 activity”. Further, the IC50 on bovine COX-2 (bovine COX-2, read-out: COX-2 IC50 (μM) ± SEM) came out at 57.5 µM.

With `O=C1/C(=C/c2cccs2)CN(C(=O)/C=C/c2cccc3ccccc23)C/C1=C\c1cccs1` [3e, (3E,5E)-1-((E)-3-(naphthalen-1-yl)acryloyl)-3,5-bis(thiophen-2-ylmethylene)piperidin-4-one], in series [1], the “AAPH Inhibition (%, at 100 μΜ)” value came out at 91 ± 2.5%. Besides, the “RM ± S.D.” value in series [2] was determined as 0.514 ± 0.039. On bovine COX-2 (bovine COX-2, 100 μM, n.a. = no activity under the experimental conditions, read-out: COX-2 (% Inhibition at 100 μM) ± SEM), the inhibition at 100 µM worked out at 19%. Besides, the IC50 came to 52 µM in series [3] and 70 µM on eel AChE.

The IC50 is the point on the concentration scale where inhibition reaches its midpoint. A word on the inhibition: it is the change of the read-out against control, counted positive when it falls.
